Key:
[1] = test system: cough reflex in conscious guinea-pigs; experiment: Citric acid-induced cough in conscious guinea-pigs; type: in vivo, guinea-pig; details: prior exposure to aerosolized test compound (300 μM in nebulizer solution), 10 minutes citric acid aerosol, FIG. 1
Procedure: Exposure of animals for 10 minutes with citric acid aerosol elicited a reproducible cough response.
The cough model is based on guinea-pigs that have been pre-screened to assess their cough response to a 10 minutes exposure of aerosolised 0.35 M citric acid. […] The guinea-pigs are then ranked with regard to their tussive response to citric acid and divided into groups so that the mean number of coughs per group is similar in the vehicle and drug treated groups.
Cough is detected both by pressure change and by sound and recorded using a chart recorder. All animals received Terbutaline (0.05 mg/kg i.p.) 10 minutes prior to challenge with citric acid to alleviate any bronchoconstriction that may occur. These animals were allowed to recover for 1 week. Following this rest period the study was initiated and animals received aerosolised vehicle (1% DMSO) or test compound at 300 μM in 1% DMSO in saline for 20 minutes prior to exposure to citric acid. After dosing, the animals were monitored and exposed to 0.35 M citric acid for 10 minutes, and the number of coughs recorded.
Initially N-(3,5-Dichlorophenyl)-N′-[3-(1H-tetrazol-5-yl)-3′-trifluoromethyl-bi-phenyl-4-yl]-urea (Compound A (3-39)) and N-(3,5-Dichlorophenyl)-N′-[4-bromo-2-(1H-tetrazol-5-yl)phenyl]urea (Compound B) were subjected to this determination, and the results of these determinations are presented in FIG. 1.

Row | SMILES | melting point | cough response to citric acid [1]
1 | O=C(Nc1cc(Cl)cc(Cl)c1)Nc1ccc(-c2ccc(C(F)(F)F)cc2)cc1-c1nnn[nH]1 [Compound 3-6, N-(3,5-Dichloro-phenyl)-N′-[3-(1H-tetrazol-5-yl)-4′-trifluoromethyl-biphenyl-4-yl]-urea] | 226 to 230 °C | 
2 | O=C(Nc1ccc(Cl)c(C(F)(F)F)c1)Nc1ccc(-c2ccc(F)cc2)cc1-c1nnn[nH]1 [Compound 3-9, N-(4-Chloro-3-trifluoromethyl-phenyl)-N′-[4′-fluoro-3-(1H-tetrazol-5-yl)-biphenyl-4-yl]-urea] | 247 to 249 °C | 
3 | O=C(Nc1cc(Cl)cc(Cl)c1)Nc1ccc(-c2ccc(Cl)cc2)cc1-c1nnn[nH]1 [Compound 3-4, N-(3,5-Dichloro-phenyl)-N′-[4′-chloro-3-(1H-tetrazol-5-yl)-biphenyl-4-yl]-urea] | 231 to 234 °C | 
4 | O=C(Nc1ccccc1F)Nc1ccc(-c2ccc(F)cc2)cc1-c1nnn[nH]1 [Compound 3-26, N-(2-Fluoro-phenyl)-N′-[4′-fluoro-3-(1H-tetrazol-5-yl)-biphenyl-4-yl]-urea] | 263 to 264 °C | 
5 | O=C(Nc1cccc(C(F)(F)F)c1)Nc1ccc(-c2ccc(Cl)cc2)cc1-c1nnn[nH]1 [Compound 3-2, N-(3-Trifluoromethyl-phenyl)-N′-[4′-chloro-3-(1H-tetrazol-5-yl)-biphenyl-4-yl]-urea] | 253 to 254 °C | 
6 | O=C(Nc1cc(-c2ccc(F)cc2)cc(-c2nnn[nH]2)c1)Nc1cccc(C(F)(F)F)c1 [Compound 3-8, N-(3-Trifluoromethyl-phenyl)-N′-[4′-fluoro-3-(1H-tetrazol-5-yl)-biphenyl-5-yl]-urea] | 256 to 258 °C | 
7 | O=C(Nc1ccc(Cl)cc1)Nc1ccc(-c2ccc(C(F)(F)F)cc2)cc1-c1nnn[nH]1 [Compound 3-44, N-(4-Chloro-phenyl)-N′-[3-(1H-tetrazol-5-yl)-4′-trifluoromethyl-biphenyl-4-yl]-urea] | 232 to 234 °C | 
8 | O=C(Nc1cc(Cl)cc(Cl)c1)Nc1ccc(Br)cc1-c1nnn[nH]1 [Compound B, N-(3,5-Dichlorophenyl)-N′-[4-bromo-2-(1H-tetrazol-5-yl)phenyl]urea] |  | greatly reduced
9 | O=C(Nc1cc(Cl)cc(Cl)c1)Nc1ccc(-c2cccc(C(F)(F)F)c2)cc1-c1nnn[nH]1 [Compound 3-39, N-(3,5-Dichloro-phenyl)-N′-[3-(1H-tetrazol-5-yl)-3′-trifluoromethyl-biphenyl-4-yl]-urea] | 236 to 239 °C | greatly reduced

Source: US20070293553A1, “Diphenylurea Derivatives Useful As Potassium Channel Activators” (priority 2004, published 2007)
